Test results from patent publication US20120035247A1, “RNA Interference Mediated Inhibition of Signal Transducer and Activator of Transcription 6 (STAT6) Gene Expression Using Short Interfering Nucleic Acid (siNA)” (Merck Sharp & Dohme Corp., priority 2009, published 2012).
[invAb] = inverted abasic unit; m = 2'-O-methyl; r = 2'-OH (RNA); f = 2'-fluoro

What was measured:
STAT6 mRNA [1] = assay: STAT6 siNA screen in mouse NIH 3T3 cells, STAT6 mRNA by quantitative RT-PCR (Taqman); type: cell-based; settings: mouse NIH3T3 cells, 10 nM siNA, 24 hrs, normalized to GAPDH and non-targeting control, n = 2
Method: NIH 3T3 (mouse; ATCC cat# CRL-1658): Cells were cultured at 37° C. in the presence of 5% CO2 and grown in Dulbecco's modified Eagle's medium (DMEM) with 4 mM L-glutamine adjusted to contain 1.5 g/L sodium bicarbonate and 4.5 g/L glucose and supplemented with fetal bovine serum at a final concentration of 10%, 100 μg/mL of streptomycin, and 100 U/mL penicillin.
(§1) Cells were plated in all wells of a tissue-culture treated, 96-well plate at a final count of 5000 cells/well in […], of the appropriate culture media. The cells were cultured for 24 hours after plating at 37° C. in the presence of 5% CO2.
(§2) After 24 hours, complexes containing siNA and RNAiMax were created as follows: A solution of RNAiMax diluted 33-fold in OPTI-MEM was prepared. In parallel, solutions of the siNAs for testing were prepared to a final concentration of 120 nM in OPTI-MEM. After incubation of RNAiMax/OPTI-MEM solution at room temperature for 5 min, an equal volume of the siNA solution and the RNAiMax solution were added together for each of the siNAs.
(§3) This solution was incubated at room temperature for 20 minutes. After incubation, 20 uL of the solution was added to each of the relevant wells. The final concentration of siNA in each well was 10 nM and the final volume of RNAiMax in each well was 0.3u1.
(§4) The time of incubation with the RNAiMax-siNA complexes was 24 hours and there was no change in media between transfection and harvesting, unless otherwise indicated.
(§5) RNA was extracted from a 96-well plate using the TaqMan® Gene Expression Cells-to-CT™ Kit (Cat#4399002) with a modified protocol. Briefly, a 60 uL (1 plate) or 110 uL (2 plates) of the Lysis Solution with DNase I was dispensed into each well of the Lysis Buffer Plate (twin.tec full skirt plate). The lysis buffer and stop plates were stored at 4° C. until the cells were washed.
(§6) The plate was spun at 1100 rpm for 5 minutes. The culture medium was aspirated and discarded from the wells of the culture plate. The lysis was performed automatically using a BioMek FX instrument and method. After the Biomek method was completed, the lysis plate was incubated for 2 min. at room temperature. The lysis plate can be stored for 2 hours at 4° C., or at −20° C. or −80° C. for two months.
(§7) Each well of the reverse transcription plate required 10 uL of 2× reverse transcriptase Buffer, luL of 20× reverse transcription enzyme and 2 uL of nuclease-free water. The reverse transcription master mix was prepared by mixing 2× reverse transcription buffer, 20× reverse transcription enzyme mix, and nuclease-free water. 13 uL of the reverse transcription master mix was dispensed into each well of the reverse transcription plate (semi-skirted). A separate reverse transcription plate was prepared for each cell plate. The plate was loaded onto a Biomek NX or Biomek FX Dual-96 and the Biomek method was run. The program is programmed to automatically added 7 uL of lysate from the cell lysis procedure described above into each well of the reverse transcription plate. The plate is sealed and spun on a centrifuge (1000 rpm for 30 seconds) to settle the contents to the bottom of the reverse transcription plate. The plate is placed in a thermocycler at 37° C. for 60 min, 95° C. for 5 min, and 4° C. until the plate is removed from the thermocycler. Upon removal, if not used immediately, the plate was frozen at −20° C.
(§8) A series of probes and primers were used to detect the various mRNA transcripts of the genes of 13-Actin (human cell line only), and of STATE and GAPDH in mouse and human cell lines. All Taqman probes and primers for the experiments here-in described were supplied as pre-validated sets by Applied Biosystems, Inc. (see Table 2).
The assays were performed on an ABI 7900 instrument, according to the manufacturer's instructions. A TaqMan Gene Expression Master Mix (provided in the Cells-to-CTT™, Applied Biosystems, Cat #4399002) was used. […]

STAT6 mRNA [2] = assay: STAT6 siNA screen and dose response in human A549 cells, STAT6 mRNA by quantitative RT-PCR (Taqman); type: cell-based; settings: human A549 cells, 10 nM siNA, 24 hrs, normalized to GAPDH and non-targeting control, mean ± S.D., n = 3
Method: A549 (human; ATCC cat# CCL-185): Cells were cultured at 37° C. in the presence of 5% CO2 and grown in Ham's F12K medium with 2 mM L-glutamine adjusted to contain 1.5 g/L sodium bicarbonate and supplemented with fetal bovine serum at a final concentration of 10%, 100 μg/mL of streptomycin, and 100 U/mL penicillin.
as §1, §2, §3, §4, §5, §6, §7, §8
The assays were performed on an ABI 7900 instrument, according to the manufacturer's instructions. A TaqMan Gene Expression Master Mix (provided in the Cells-to-CTT™, Applied Biosystems, Cat #4399002) was used. The PCR reactions were carried out at 50° C. for 2 min, 95° C. for 20 min followed by 40 cycles at 95° C. for 15 secs and 60° C. for 1 min. […]

| Substance | % KD STAT6 (STAT6 mRNA [1]) | % KD STAT6 (STAT6 mRNA [2]) |
| --- | --- | --- |
| 29989-DC: STAT6 siNA duplex; sense SEQ ID NO: 42, antisense SEQ ID NO: 43; target GAAGGCUUCUCCGCCCAUU, site 3187 (sense GAAGGCUUCUCCGCCCAUUTT; antisense AAUGGGCGGAGAAGCCUUCUU; sense: DNA at AGT, 2'-fluoro at CU, [invAb] at 5' end, 3' end, backbone not given here; antisense: sugars from the 5' end rrrmmmfmmmmmmmfffffmm, backbone not given here) [STAT6 siNA duplex; target GAAGGCUUCUCCGCCCAUU, site 3187] | −18.3 ± 7.1% | 29.1 ± 3.8% |
| 29991-DC: STAT6 siNA duplex; sense SEQ ID NO: 46, antisense SEQ ID NO: 47; target CAGCCAAAGCCCUAGUGCU, site 846 (sense CAGCCAAAGCCCUAGUGCUTT; antisense AGCACUAGGGCUUUGGCUGUU; sense: DNA at AGT, 2'-fluoro at CU, [invAb] at 5' end, 3' end, backbone not given here; antisense: sugars from the 5' end rrrmffmmmmffffmmffmmm, backbone not given here) [STAT6 siNA duplex; target …UAGUGCU, site 846] | −30 ± 9.2% | −2.1 ± 17.7% |
| 29992-DC: STAT6 siNA duplex; sense SEQ ID NO: 48, antisense SEQ ID NO: 49; target CUGAGAACCCUCGUCACCA, site 1064 (sense CUGAGAACCCUCGUCACCATT; antisense UGGUGACGAGGGUUCUCAGUU; sense: DNA at AGT, 2'-fluoro at CU, [invAb] at 5' end, 3' end, backbone not given here; antisense: sugars from the 5' end rrrfmmfmmmmmfffffmmmm, backbone not given here) [STAT6 siNA duplex; target CUGAGAACCCUCGUCACCA, site 1064] | −0.5 ± 1% | 51.2 ± 0.4% |
| 29993-DC: STAT6 siNA duplex; sense SEQ ID NO: 50, antisense SEQ ID NO: 51; target CCCUUGAGAGCAUAUAUCA, site 519 (sense CCCUUGAGAGCAUAUAUCATT; antisense UGAUAUAUGCUCUCAAGGGUU; sense: DNA at AGT, 2'-fluoro at CU, [invAb] at 5' end, 3' end, backbone not given here; antisense: sugars from the 5' end rrrfmfmfmffmfmmmmmmmm, backbone not given here) [STAT6 siNA duplex; target CCCUUGAGAGCAUAUAUCA, site 519] | −23.4 ± 1.6% | 24.4 ± 8.1% |
| 29994-DC: STAT6 siNA duplex; sense SEQ ID NO: 52, antisense SEQ ID NO: 53; target CUGAUCAUUGGCUUCAUCA, site 1880 (sense CUGAUCAUUGGCUUCAUCATT; antisense UGAUGAAGCCAAUGAUCAGUU; sense: DNA at AGT, 2'-fluoro at CU, [invAb] at 5' end, 3' end, backbone not given here; antisense: sugars from the 5' end rrrfmmmmffmmfmmffmmmm, backbone not given here) [STAT6 siNA duplex; target CUGAUCAUUGGCUUCAUCA, site 1880] | −13.9 ± 4.1% | 1.9 ± 15.7% |
| 29995-DC: STAT6 siNA duplex; sense SEQ ID NO: 54, antisense SEQ ID NO: 55; target CAGGAUGGCUCUCCACAGA, site 2009 (sense CAGGAUGGCUCUCCACAGATT; antisense UCUGUGGAGAGCCAUCCUGUU; sense: DNA at AGT, 2'-fluoro at CU, [invAb] at 5' end, 3' end, backbone not given here; antisense: sugars from the 5' end rrrmfmmmmmmffrffffmmm, backbone not given here) [STAT6 siNA duplex; target CAGGAUGGCUCUCCACAGA, site 2009] | −6.6 ± 1.3% | 20.4 ± 5.1% |
| 29996-DC: STAT6 siNA duplex; sense SEQ ID NO: 56, antisense SEQ ID NO: 57; target GCACCAUCUUGCAACACAU, site 495 (sense GCACCAUCUUGCAACACAUTT; antisense AUGUGUUGCAAGAUGGUGCUU; sense: DNA at AGT, 2'-fluoro at CU, [invAb] at 5' end, 3' end, backbone not given here; antisense: sugars from the 5' end rrrfmffmfmmmmfmmfmfmm, backbone not given here) [STAT6 siNA duplex; target GCACCAUCUUGCAACACAU, site 495] | −10.9 ± 0.1% | 49.5 ± 5.5% |
| 29998-DC: STAT6 siNA duplex; sense SEQ ID NO: 60, antisense SEQ ID NO: 61; target CUUCUUAUGACCUUGGAAU, site 2274 (sense CUUCUUAUGACCUUGGAAUTT; antisense AUUCCAAGGUCAUAAGAAGUU; sense: DNA at AGT, 2'-fluoro at CU, [invAb] at 5' end, 3' end, backbone not given here; antisense: sugars from the 5' end rrrffmmmmffmfmmmmmmmm, backbone not given here) [STAT6 siNA duplex; target CUUCUUAUGACCUUGGAAU, site 2274] | −3.8 ± 9.2% | 32.5 ± 3.5% |
| 30000-DC: STAT6 siNA duplex; sense SEQ ID NO: 64, antisense SEQ ID NO: 65; target CACAUACAGAGCUCUCUGA, site 3114 (sense CACAUACAGAGCUCUCUGATT; antisense UCAGAGAGCUCUGUAUGUGUU; sense: DNA at AGT, 2'-fluoro at CU, [invAb] at 5' end, 3' end, backbone not given here; antisense: sugars from the 5' end rrrmmmmmffffmfmfmfmmm, backbone not given here) [STAT6 siNA duplex; target CACAUACAGAGCUCUCUGA, site 3114] | −21.9 ± 5.7% | 40.5 ± 12.5% |
